Structures can show the parent of a compound that is named as a salt.
Molecular target: T1, murine MCHR (Mus musculus, UniProt Q8JZL2)
T1 construct: expressed in transfected cells; host or cells: HEK293
Experiment: Assay for release of intracellular calcium (FLIPR, Fluo-4), inhibition of MCH-induced Ca++ flux
Format: cell-based
Settings: test compound at a dose of 10 μM, HEK293 cells expressing the murine MCHR, read-out: inhibition of MCH (MCH induced Ca++ flux / fluorescence)
Procedure: Assay for Release of Intracellular Calcium
Activation of the melanin concentrating hormone receptor (MCHR) by MCH induces the release of Ca^++ from intracellular stores. This intracellular calcium release is measured using a fluorometric imaging plate reader (FLIPR™, Molecular Devices Corp.) in conjunction with the Ca^++-sensitive dye Fluo-4. Release of Ca^++ from intracellular stores causes an increase in fluorescence of the dye that is proportional to Ca^++ concentration. Briefly, the assays are performed as follows. HEK293 cells expressing the murine MCHR are plated overnight at 50,000 cells/well in 96-well plates. The following day, culture medium is removed and replaced with 100 μl/well of D-PBS (+glucose and sodium pyruvate) containing 2.5 μM Fluo-4AM (Molecular Probes), 0.01% Pluronic F-127 and 2.5 mM probenecid. Cells are loaded with the Fluo-4 dye for at least one hour at room temp. After loading, the cells are washed gently to remove extracellular dye and 100 μl of D-PBS (+glucose and sodium pyruvate) is added to each well. Test compounds are prepared at 40 μM in 4% DMSO. The cell plate is placed in the FLIPR™ and 50 μl/well of test compound is delivered. The calcium signal is followed for 3 minutes to assay for potential agonist activity by the test compounds. Then 50 μl/well of 12 nM mouse MCH (in D-PBS containing 0.1% BSA) is added and the ligand-induced calcium signal is followed for an additional 3 minutes. Antagonist activity as determined by the test compounds ability to inhibit MCH induced Ca^++ flux is calculated as % inhibition as described by the following formula: % inhibition=[1−((fTC−fB)÷(fMCH−fB))]×100, where fTC=MCH-induced fluorescence in the presence of test compound; fMCH=MCH-induced fluorescence in the absence of test compound; and fB=Baseline fluorescence.
MCH (3 nM) usually elicits a response of 30,000-40,000 relative fluorescence units (RFU) with a baseline of about 1000 RFU. Fluo-4 fluorescence is measured at 488 nm, with an exposure of 0.40 sec. and F-stop=2.0 and the laser set at 0.40-0.60 W constant light output.

T1 sequence (Q8JZL2 whole entry): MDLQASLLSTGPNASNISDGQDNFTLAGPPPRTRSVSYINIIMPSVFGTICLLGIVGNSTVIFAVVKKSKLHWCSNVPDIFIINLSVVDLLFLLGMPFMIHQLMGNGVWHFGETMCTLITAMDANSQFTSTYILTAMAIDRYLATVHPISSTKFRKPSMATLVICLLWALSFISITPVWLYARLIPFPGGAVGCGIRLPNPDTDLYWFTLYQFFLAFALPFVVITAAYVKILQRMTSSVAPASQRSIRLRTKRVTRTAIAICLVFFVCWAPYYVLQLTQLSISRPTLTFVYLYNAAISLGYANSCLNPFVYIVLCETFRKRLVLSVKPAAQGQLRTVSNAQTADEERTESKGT

| Compound | inhibition at 10 µM [%] |
| --- | --- |
| O=c1cc(NC2CCN(Cc3ccc4ccccc4c3)CC2)c2cc(Cl)ccc2n1Cc1cccnc1 [Compound V-1, 6-Chloro-4-(1-naphthalen-2-ylmethyl-piperidin-4-ylamino)-1-pyridin-3-ylmethyl-1H-quinolin-2-one] | ≥ 50 |
| O=c1cc(NC2CCN(C/C=C/c3ccccc3)CC2)c2ccccc2n1Cc1ccccc1 [Compound V-44, 1-Benzyl-4-[1-(3-phenyl-allyl)-piperidin-4-ylamino]-1H-quinolin-2-one] | ≥ 50 |
| O=c1cc(NC2CCN(Cc3ccc4c(c3)OCO4)CC2)c2cc(Cl)ccc2n1CC(F)(F)F [Compound V-7, 4-(1-Benzo[1,3]dioxol-5-ylmethylpiperidin-4-ylamino)-6-chloro-1-(2,2,2-trifluoroethyl)-1H-quinolin-2-] | ≥ 50 |
| O=c1cc(NC2CCN(Cc3ccc4c(c3)OCO4)CC2)c2cc(Cl)ccc2n1Cc1cc[n+]([O-])cc1 [Compound V-19, 4-(1-Benzo[1,3]dioxol-5-ylmethyl-piperidin-4-ylamino)-6-chloro-1-(1-oxy-pyridin-4-ylmethyl)-1H-quinolin-2-one] | ≥ 50 |
| CC(c1ccc2c(c1)OCO2)N1CCC(Nc2c(C(=O)N(C)C)c(=O)n(C)c3ccc(Cl)cc23)CC1 (centres unmarked) [Compound V-34, 4-[1-(1-Benzo[1,3]dioxol-5-yl-ethyl)-piperidin-4-ylamino]-6-chloro-1-methyl-2-oxo-1,2-dihydro-quinoline-3-carboxylic acid dimethylamide] | ≥ 50 |
| O=c1cc(NC2CCN(Cc3ccc4ccccc4c3)CC2)c2cc(Cl)ccc2n1Cc1ccncc1 [Compound V-5, 6-Chloro-4-(1-naphthalen-2-ylmethyl-piperidin-4-ylamino)-1-pyridin-4-ylmethyl-1H-quinolin-2-one] | ≥ 50 |
| N#Cc1c(NC2CCN(Cc3ccc4c(c3)OCO4)CC2)c2cc(Cl)ccc2[nH]c1=O [Compound V-27, 4-(1-Benzo[1,3]dioxol-5-ylmethyl-piperidin-4-ylamino)-6-chloro-2-oxo-1,2-dihydro-quinoline-3-carbonitrile] | ≥ 50 |
| N#Cc1c(NC2CCN(Cc3ccc4occc4c3)CC2)c2cc(Cl)ccc2[nH]c1=O [Compound V-23, 4-(1-Benzofuran-5-ylmethyl-piperidin-4-ylamino)-6-chloro-2-oxo-1,2-dihydro-quinoline-3-carbonitrile] | ≥ 50 |
| COc1ccc2oc(=O)cc(NC3CCN(Cc4ccc5c(c4)OCO5)CC3)c2c1 [II-1, 4-(1-Benzo[1,3]dioxol-5-ylmethyl-piperidin-4-ylamino)-6-methoxy-chromen-2-one] | ≥ 50 |
| CN(C)C(=O)c1c(NC2CCN(Cc3ccc4occc4c3)CC2)c2cc(Cl)ccc2n(C)c1=O [Compound V-40, 4-(1-Benzofuran-5-ylmethyl-piperidin-4-ylamino)-6-chloro-1-methyl-2-oxo-1,2-dihydro-quinoline-3-carboxylic acid dimethylamide] | ≥ 50 |
| CCc1ccc2c(c1)c(NC1CCN(Cc3ccc4ccccc4c3)CC1)cc(=O)n2C [Compound V-20, 6-Ethyl-1-methyl-4-(1-naphthalen-2-ylmethyl-piperidin-4-ylamino)-1H-quinolin-2-one] | ≥ 50 |
| CN(C)C(=O)c1c(NC2CCN(Cc3ccc4c(c3)OCO4)CC2)c2cc(Br)ccc2n(C)c1=O [Compound V-42, 4-(1-Benzo[1,3]dioxol-5-ylmethyl-piperidin-4-ylamino)-6-bromo-1-methyl-2-oxo-1,2-dihydro-quinoline-3-carboxylic acid dimethylamide] | ≥ 50 |
| O=c1cc(NC2CCN(Cc3ccc4occc4c3)CC2)c2cc(Cl)ccc2n1Cc1ccncc1 [Compound V-10, 4-(1-Benzofuran-5-ylmethyl-piperidin-4-ylamino)-6-chloro-1-pyridin-4-ylmethyl-1H-quinolin-2-one] | ≥ 50 |
| COc1ccc(CN2CCC(Nc3c(C#N)c(=O)n(C)c4ccc(Cl)cc34)CC2)cc1F [Compound V-32, 6-Chloro-4-[1-(3-fluoro-4-methoxy-benzyl)-piperidin-4-ylamino]-1-methyl-2-oxo-1,2-dihydro-quinoline-3-carbonitrile] | ≥ 50 |
| COC(=O)c1c(NC2CCN(Cc3ccc4ccccc4c3)CC2)c2cc(Cl)ccc2n(C)c1=O [Compound V-30, 6-Chloro-1-methyl-4-(1-naphthalen-2-ylmethyl-piperidin-4-ylamino)-2-oxo-1,2-dihydro-quinoline-3-carboxylic acid methyl ester] | ≥ 50 |
| COC(=O)c1c(NC2CCN(Cc3ccc4ccccc4c3)CC2)c2cc(Cl)ccc2[nH]c1=O [Compound V-37, 6-Chloro-4-(1-naphthalen-2-ylmethyl-piperidin-4-ylamino)-2-oxo-1,2-dihydro-quinoline-3-carboxylic acid methyl ester] | ≥ 50 |
| COc1ccc2oc(=O)cc(NC3CCN(Cc4ccc(C)cc4)CC3)c2c1 [II-34, 6-Methoxy-4-[1-(4-methyl-benzyl)-piperidin-4-ylamino]-chromen-2-one trifluoroacetate] | ≥ 50 |
| C=Cc1ccc2oc(=O)cc(NC3CCN(Cc4ccc5c(c4)OCO5)CC3)c2c1 [II-35, 4-(1-Benzo[1,3]dioxol-5-ylmethyl-piperidin-4-ylamino)-6-vinyl-chromen-2-one] | ≥ 50 |
| O=c1cc(NC2CCN(Cc3csc4ccccc34)CC2)c2cc(Cl)ccc2o1 [II-6, 4-(1-Benzo[b]thiophen-3-ylmethyl-piperidin-4-ylamino)-6-chloro-chromen-2-one] | ≥ 50 |
| COc1ccc2c(c1)c(NC1CCN(Cc3ccc4occc4c3)CC1)cc(=O)n2C [Compound V-12, 4-(1-Benzofuran-5-ylmethyl-piperidin-4-ylamino)-6-methoxy-1-methyl-1H-quinolin-2-one] | ≥ 50 |

Other lines, results leading:

| inhibition at 10 µM [%] | Compound |
| --- | --- |
| ≥ 50 | COc1ccc2oc(=O)cc(NC3CCN(Cc4ccc(C(=O)NCCc5ccccn5)cc4)CC3)c2c1 [II-83, 4-[4-(6-Methoxy-2-oxo-2H-chromen-4-ylamino)-piperidin-1-ylmethyl]-N-(2-pyridin-2-yl-ethyl)-benzamide; Double TFA Salt] |
| ≥ 50 | O=c1cc(NC2CCN(Cc3ccc4cnccc4c3)CC2)c2cc(Cl)ccc2o1 [II-73, 6-Chloro-4-(1-isoquinolin-6-ylmethyl-piperidin-4-ylamino)-chromen-2-one] |
| ≥ 50 | CC(=O)Nc1c(NC2CCN(Cc3ccc4c(c3)OCO4)CC2)c2cc(Cl)ccc2oc1=O [II-42, N-[4-(1-Benzo[1,3]dioxol-5-ylmethyl-piperidin-4-ylamino)-6-chloro-2-oxo-2H-chromen-3-yl]-acetamide] |
| ≥ 50 | COc1ccc2oc(=O)cc(NC3CCN(Cc4ccc(OCCCN(C)C)cc4)CC3)c2c1 [II-91] |
| ≥ 50 | COc1ccc2oc(=O)cc(NC3CCN(Cc4ccc(C)c(F)c4)CC3)c2c1 [II-105, 4-[1-(3-Fluoro-4-methyl-benzyl)-piperidin-4-ylamino]-6-methoxy-chromen-2-one trifluoroacetate] |
| ≥ 50 | COc1ccc2oc(=O)cc(NC3CCN(Cc4cccc5ccccc45)CC3)c2c1 [II-66, 6-Methoxy-4-(1-naphthalen-1-ylmethyl-piperidin-4-ylamino)-chromen-2-one trifluoroacetate] |
| ≥ 50 | CC(=O)c1ccc(CN2CCC(Nc3cc(=O)oc4ccc(Cl)cc34)CC2)cc1 [II-48, 4-[1-(4-Acetyl-benzyl)-piperidin-4-ylamino]-6-chloro-chromen-2-one] |
| ≥ 50 | COc1ccc([C@@H](C)N2CCC(Nc3cc(=O)oc4ccc(Cl)cc34)CC2)cc1F (stereo in doubt) [II-45, 6-Chloro-4-{1-[1-(3-fluoro-4-methoxy-phenyl)-ethyl]-piperidin-4-ylamino}-chromen-2-one] |
| ≥ 50 | COc1ccc2oc(=O)cc(NC3CCN(Cc4ccc5c(ccn5C)c4)CC3)c2c1 [II-111, 6-Methoxy-4-[N-methylindole-5-ylmethyl-piperidin-4-ylamino]chromen-2-one] |
| ≥ 50 | CCOc1ccc(CN2CCC(Nc3cc(=O)oc4ccc(OC)cc34)CC2)cc1 [II-80, 4-[1-(4-Ethoxy-benzyl)-piperidin-4-ylamino]-6-methoxy-chromen-2-one trifluoroacetate] |
| ≥ 50 | Cc1cc(C)c2oc(=O)cc(NC3CCN(Cc4ccc5c(c4)OCO5)CC3)c2c1 [II-98, 4-(1-Benzo[1,3]dioxol-5-ylmethyl-piperidin-4-ylamino)-6,8-dimethyl-chromen-2-one] |
| ≥ 50 | O=c1cc(NC2CCN(Cc3ccc4ccccc4c3)CC2)c2cc(F)cc(F)c2o1 [II-85, 6,8-Difluoro-4-(1-naphthalen-2-ylmethyl-piperidin-4-ylamino)-chromen-2-one] |

— patent publication US6921821B2, “Antagonists of melanin concentrating hormone receptor” (Abbott Laboratories, priority 2002, dated 2005)
